Reference: BindingDB's records for patent US12065436 (Cytokinetics, 2024)

biological target: T1, Myosin-7 (Bos taurus, UniProt Q9BE39); assay: Myofibril Assays
T1 construct: gene MYH7
Description: To evaluate the effect of compounds on the ATPase activity of full-length cardiac myosin in the context of the native sarcomere, skinned myofibril assays were performed. Bovine cardiac myofibrils were obtained by homogenizing bovine cardiac left ventricular tissue in the presence of a detergent such as triton X-100. Such treatment removes membranes and a majority of the soluble cytoplasmic proteins but leaves intact the cardiac sarcomeric acto-myosin apparatus. Myofibril preparations retain the ability to hydrolyze ATP in an Ca2+ regulated manner. […] Small molecule agents were assessed for their ability to inhibit the steady-state ATPase activity of bovine cardiac myofibrils using pyruvate kinase and lactate dehydrogenase (PK/LDH)-coupled enzyme system. This assay regenerates myosin-produced ADP into ATP by oxidizing NADH, producing an absorbance change at 340 nm.

T1 sequence (Q9BE39 whole entry, looked up): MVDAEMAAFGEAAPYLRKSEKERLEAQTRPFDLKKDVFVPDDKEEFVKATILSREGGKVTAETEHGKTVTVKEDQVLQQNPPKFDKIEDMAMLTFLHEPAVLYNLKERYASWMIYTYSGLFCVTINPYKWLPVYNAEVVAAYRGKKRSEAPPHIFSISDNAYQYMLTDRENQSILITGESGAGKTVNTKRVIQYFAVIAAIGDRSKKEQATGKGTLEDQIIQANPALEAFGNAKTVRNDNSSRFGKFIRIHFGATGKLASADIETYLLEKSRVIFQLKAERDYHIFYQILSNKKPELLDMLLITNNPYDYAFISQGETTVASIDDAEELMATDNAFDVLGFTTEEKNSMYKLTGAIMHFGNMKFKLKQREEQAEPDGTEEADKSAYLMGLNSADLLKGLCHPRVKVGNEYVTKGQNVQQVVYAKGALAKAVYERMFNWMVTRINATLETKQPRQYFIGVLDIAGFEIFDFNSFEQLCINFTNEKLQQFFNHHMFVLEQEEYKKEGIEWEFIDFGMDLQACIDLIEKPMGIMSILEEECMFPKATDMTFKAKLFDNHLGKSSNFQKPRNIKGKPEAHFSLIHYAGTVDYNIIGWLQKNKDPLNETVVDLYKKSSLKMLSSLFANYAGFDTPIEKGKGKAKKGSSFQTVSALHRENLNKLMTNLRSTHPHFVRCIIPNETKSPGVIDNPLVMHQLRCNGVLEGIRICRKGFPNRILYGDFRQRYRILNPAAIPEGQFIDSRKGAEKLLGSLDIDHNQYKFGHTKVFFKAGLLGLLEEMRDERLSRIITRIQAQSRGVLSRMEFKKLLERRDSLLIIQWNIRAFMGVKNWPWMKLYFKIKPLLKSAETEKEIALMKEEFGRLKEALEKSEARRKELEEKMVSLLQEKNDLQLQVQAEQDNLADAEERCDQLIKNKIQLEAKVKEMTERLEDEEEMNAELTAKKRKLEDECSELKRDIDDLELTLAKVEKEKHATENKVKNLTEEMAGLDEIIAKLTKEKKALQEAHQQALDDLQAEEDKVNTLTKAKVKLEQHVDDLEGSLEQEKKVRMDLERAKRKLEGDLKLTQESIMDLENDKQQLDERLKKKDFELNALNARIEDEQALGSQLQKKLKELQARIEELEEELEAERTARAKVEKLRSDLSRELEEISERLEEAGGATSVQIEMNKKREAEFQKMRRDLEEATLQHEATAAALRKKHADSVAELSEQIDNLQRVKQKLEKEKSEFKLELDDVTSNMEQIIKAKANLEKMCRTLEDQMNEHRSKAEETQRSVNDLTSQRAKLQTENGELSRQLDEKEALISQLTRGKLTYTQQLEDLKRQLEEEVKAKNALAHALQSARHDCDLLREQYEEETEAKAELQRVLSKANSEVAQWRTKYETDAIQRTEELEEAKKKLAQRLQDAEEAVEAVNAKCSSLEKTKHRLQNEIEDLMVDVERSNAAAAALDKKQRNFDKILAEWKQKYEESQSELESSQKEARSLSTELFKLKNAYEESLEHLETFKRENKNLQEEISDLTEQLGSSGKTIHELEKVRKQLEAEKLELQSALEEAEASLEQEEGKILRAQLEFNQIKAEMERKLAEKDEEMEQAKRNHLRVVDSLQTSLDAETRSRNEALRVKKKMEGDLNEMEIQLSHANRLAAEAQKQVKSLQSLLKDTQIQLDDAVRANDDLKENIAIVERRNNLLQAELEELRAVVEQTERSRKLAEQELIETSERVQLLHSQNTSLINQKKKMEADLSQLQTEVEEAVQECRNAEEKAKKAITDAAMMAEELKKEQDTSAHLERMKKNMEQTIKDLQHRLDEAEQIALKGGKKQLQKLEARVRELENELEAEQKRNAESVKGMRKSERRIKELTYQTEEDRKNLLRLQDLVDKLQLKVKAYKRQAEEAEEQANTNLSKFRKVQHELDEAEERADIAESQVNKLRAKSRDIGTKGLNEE

Q: How did the IC50 turn out when `CCc1cc(-c2ccc3c(c2)CC[C@H]3NC(=O)OC)no1` [US12065436, Compound 345] was run?
A: Its IC50 is 0.8 µM.

Q: For `Cc1cc(C(=O)NC2CCc3cc(-c4noc(C(F)F)n4)ccc32)on1` (stereo not given) [US12065436, Compound 102], which IC50 is on record?
A: Its IC50 is 5.8 µM.

Q: Which IC50 does the source give for `CCc1nc(-c2ccc3c(c2)CC[C@H]3NC(=O)c2cnn(C3CN(C(=O)OC)C3)c2)no1` [US12065436, Compound 480] here?
A: Its IC50 is 39.2 µM.

Q: For `CCc1nc(-c2ccc3c(c2)CC[C@H]3NC(=O)c2cnn(C3CN(C(=O)OC(C)(C)C)C3)c2)no1` [US12065436, Compound 471], which IC50 is on record?
A: Its IC50 is 7.1 µM.

Q: `Cn1cc(C(=O)N[C@@H]2CCc3cc(-c4noc(C5CCC5)n4)ccc32)cn1` [US12065436, Compound 411] was tested. Which IC50 did it give?
A: The IC50 was 3.2 µM.

Q: For `O=C(N[C@@H]1CCc2cc(-c3noc(C4CC4)n3)ccc21)C1CC1` [US12065436, Compound 318], which IC50 is on record?
A: The IC50 was 9.3 µM.

Q: How did the IC50 turn out when `Cc1cnoc1C(=O)N[C@@H]1CCc2cc(-c3noc(C(F)F)n3)ccc21` [US12065436, Compound 93] was run?
A: Its IC50 is 0.9 µM.

Q: With `COCc1nc(-c2ccc3c(c2)CC[C@H]3NC(=O)c2cnc(C)n2C)no1` [US12065436, Compound 691] as the molecule, how does the IC50 read?
A: The IC50 was 5.8 µM.

Q: With `Cc1cnoc1C(=O)NC1CCc2cc(-c3noc(C(F)F)n3)ccc21` (stereo not given) [US12065436, Compound 103] as the molecule, how does the IC50 read?
A: The IC50 was 2.2 µM.

Q: With `Cc1nc(-c2ccc3c(c2)CCC3NC(=O)Nc2cnccn2)no1` (stereo not given) [US12065436, Compound 86] as the molecule, how does the IC50 read?
A: Its IC50 is 14.9 µM.
